Test results: US10759831B2, “Peptide compound, production method therefor, and use thereof” (iNtRON Biotechnology, Inc., priority 2014, dated 2020)
Where two headings read alike, the source gives them in different places.

Columns and labels:
[1] = tested on: colon cancer cell line HCT116; assay: SRB cell viability assay, colon cancer cell line HCT116; format: cell-based
Procedure: (§1) Regarding a lung cancer cell line A549 (Korean Cell line Bank), a colon cancer cell line HCT116 (ATCC), a stomach cancer cell line SNU638 (Korean Cell Line Bank), a liver cancer cell line SK-HEP-1 (Korean Cell line Bank), and a breast cancer cell line MDA-MB-231 (Korean Cell line Bank), a sulforhodamine B (SRB) assay which is a method of measuring cell viability was used for measuring apoptosis effects of Asperphenin.
(§2) In detail, 190 μl of a cell suspension at a concentration of 3.5×10^4 cells/ml was inoculated in each well of a 96-well microplate. 0.8 μM, 4 μM, 20 μM, or 100 μM of Asperphenin was added to the cell culture medium, and cultured at a temperature of 37° C. for 72 hours under the condition of 5% CO2. After incubation, 50 μl of 50% (v/v) trichloroacetic acid solution (Sigma Aldrich) was added to each well, and then, incubated at a temperature of 4° C. for 30 minutes, to thereby fix the cells thereto. The fixed cells were washed with water five times, and then, dried in the air.
(§3) Next, 80 μl of a 0.4% (w/v) SRB aqueous solution (Sigma Aldrich) containing 1% (v/v) acetic acid (DUKSAN) was added to each well, incubated at room temperature for 1 hour to stain cells therein, and the stained cells washed with water and dried. The cells were dissolved by adding 200 μl of 10 mM Tris (pH 10.0) (Sigma Aldrich) to each well, and then, the number of living cells was calculated by measuring the absorbance thereof at 515 nm. The concentration of the compound inhibiting cell growth to 50% based on the number of the living cells, i.e., 50% inhibition concentration (IC50) was calculated, and the results are shown in Table 3. Here, as a positive control, etoposide (Sigma Aldrich) was used.
From the colon cancer cell lines HCT116 (ATCC), HCT15 (Korean Cell Line Bank), LS174T (Korean Cell Line Bank), RKO(ATCC), and SW480(ATCC), cell growth inhibition concentrations (IC50, μM) were calculated as described in Example 2-1, and the results are shown in Table 4. Here, as a positive control, paclitaxel (Sigma Aldrich) was used.

[2] = tested on: stomach cancer cell line SNU638; assay: SRB cell viability assay, stomach cancer cell line SNU638; format: cell-based; conditions: SNU638, 72 hours, read-out: Cell growth inhibition concentration (IC50)
Procedure: as §1, §2, §3

[3] = tested on: liver cancer cell line SK-HEP-1; assay: SRB cell viability assay, liver cancer cell line SK-HEP-1; format: cell-based; conditions: SK-HEP-1, 72 hours, read-out: Cell growth inhibition concentration (IC50)
Procedure: as §1, §2, §3

[4] = tested on: breast cancer cell line MDA-MB-231; assay: SRB cell viability assay, breast cancer cell line MDA-MB-231; format: cell-based; conditions: MDA-MB-231, 72 hours, read-out: Cell growth inhibition concentration (IC50)
Procedure: as §1, §2, §3

[5] = tested on: lung cancer cell line A549; assay: SRB cell viability assay, lung cancer cell line A549; format: cell-based; conditions: A549, 72 hours, read-out: Cell growth inhibition concentration (IC50)
Procedure: as §1, §2, §3

RKO cells = assay: Combination of Asperphenin B with other anticancer drugs, SRB cell viability; format: cell-based, human; conditions: 48 hours; for Effects of cell growth inhibition in combination with Asperphenin B compared to the anticancer drug alone: FIGS. 7A to 7C; for Effect of administration in combination: <1 synergistic, =1 additive, >1 antagonistic
Procedure: RKO cells diluted in a medium containing 10% (v/v) FBS were inoculated in each well of a 96-well microplate so that each plate included 7×10^3 cells, and then, the cells were cultured for about 24 hours at a temperature of 37° C. under the condition of 5% CO2. In the medium containing 10% (v/v) FBS, irinotecan (Sigma Aldrich), 5-fluorouracil (Sigma Aldrich), or gemsitabin (Sigma Aldrich) was mixed with […] at a ratio of 1:1, and then, the mixture was added to the cultured cells. Then, the cells were cultured for 48 hours at a temperature of 37° C. under the conditions of 5% CO2. […] In addition, the effects of the administration in combination were measured according to Equation 1, and results thereof are shown in Table 8. Effects of administration in combination=D1/(Dx)1+D2/(Dx)2 [Equation 1] D1: Concentration of […] with expected effect in administration in combination D2: Concentration of other anticancer drugs with expected effect in administration in combination (Dx)1: Concentration of […] with expected effect in administration of […] only (Dx)2: Concentration of other anticancer drugs with expected effect in administration of other anticancer drugs only […]

[6] = tested on: colon cancer cell line LS174T; assay: SRB cell viability assay, colon cancer cell line LS174T; format: cell-based; conditions: Homo sapiens, read-out: Growth inhibition value of cancer cell (IC50)
Procedure: as §2
(§4) Next, 80 μl of a 0.4% (w/v) SRB aqueous solution (Sigma Aldrich) containing 1% (v/v) acetic acid (DUKSAN) was added to each well, incubated at room temperature for 1 hour to stain cells therein, and the stained cells washed with water and dried. The cells were dissolved by adding 200 μl of 10 mM Tris (pH 10.0) (Sigma Aldrich) to each well, and then, the number of living cells was calculated by measuring the absorbance thereof at 515 nm. […]
(§5) From the colon cancer cell lines HCT116 (ATCC), HCT15 (Korean Cell Line Bank), LS174T (Korean Cell Line Bank), RKO(ATCC), and SW480(ATCC), cell growth inhibition concentrations (IC50, μM) were calculated as described in Example 2-1, and the results are shown in Table 4. […]

[7] = tested on: colon cancer cell line HCT15; assay: SRB cell viability assay, colon cancer cell line HCT15; format: cell-based; conditions: Homo sapiens, HCT-15, read-out: Growth inhibition value of cancer cell (IC50)
Procedure: as §2, §4, §5

[8] = tested on: colon cancer cell line RKO; assay: SRB cell viability assay, colon cancer cell line RKO; format: cell-based; conditions: Homo sapiens, read-out: Growth inhibition value of cancer cell (IC50)
Procedure: as §2, §4, §5

[9] = tested on: colon cancer cell line SW480; assay: SRB cell viability assay, colon cancer cell line SW480; format: cell-based; conditions: Homo sapiens, read-out: Growth inhibition value of cancer cell (IC50)
Procedure: as §2, §4, §5

[10] = Physicochemical characterization

Q: For COc1cc([C@@H]2c3cc4c(cc3[C@@H](O[C@@H]3O[C@@H]5CO[C@@H](C)O[C@H]5[C@H](O)[C@H]3O)[C@H]3COC(=O)[C@H]23)OCO4)cc(OC)c1O [Etoposide, etoposide, reference compound], which IC50 ([1]; Homo sapiens, HCT-116, HCT116, 72 hours, Table 3, read-out: Cell growth inhibition concentration (IC50)) is on record?
A: 1900 nM

Q: And the IC50 ([2]; Homo sapiens, SNU-638)?
A: 800 nM

Q: And the IC50 ([3]; Homo sapiens, SK-HEP1)?
A: 600 nM

Q: What about the IC50 ([4]; Homo sapiens) of the same molecule?
A: 10600 nM

Q: What about the IC50 ([5]; Homo sapiens) of the same molecule?
A: 700 nM

Q: With CCc1c2c(nc3ccc(OC(=O)N4CCC(N5CCCCC5)CC4)cc13)-c1cc3c(c(=O)n1C2)COC(=O)[C@]3(O)CC [Irinotecan, irinotecan] as the molecule, how does the “Effects of cell growth inhibition in combination with Asperphenin B compared to the anticancer drug alone” value (RKO cells) read?
A: increased

Q: And the “Effect of administration in combination” value (RKO cells; irinotecan 1.25 μM + Asperphenin B 2.5 μM)?
A: 0.792

Q: And the “Effect of administration in combination” value (RKO cells; irinotecan 2.5 μM + Asperphenin B 2.5 μM)?
A: 0.751

Q: What about the “Effect of administration in combination” value (RKO cells; irinotecan 5 μM + Asperphenin B 2.5 μM) of the same molecule?
A: 0.691

Q: What about the “Effect of administration in combination” value (RKO cells; irinotecan 10 μM + Asperphenin B 2.5 μM) of the same molecule?
A: 0.650

Q: What does the source list for O=c1[nH]cc(F)c(=O)[nH]1 [5-fluorouracil]?
A: Effect of administration in combination (RKO cells; 5-fluorouracil 0.08 μM + Asperphenin B 8 μM): 0.863; Effect of administration in combination (RKO cells; 5-fluorouracil 0.4 μM + Asperphenin B 8 μM): 0.852; Effect of administration in combination (RKO cells; 5-fluorouracil 2 μM + Asperphenin B 8 μM): 0.786; Effect of administration in combination (RKO cells; 5-fluorouracil 10 μM + Asperphenin B 8 μM): 0.765; Effects of cell growth inhibition in combination with Asperphenin B compared to the anticancer drug alone (RKO cells): increased

Q: Which “Effects of cell growth inhibition in combination with Asperphenin B compared to the anticancer drug alone” value (RKO cells) does the source give for Nc1ccn([C@@H]2O[C@H](CO)[C@@H](O)C2(F)F)c(=O)n1 [Gemsitabin, gemsitabin] here?
A: increased

Q: What about the “Effect of administration in combination” value (RKO cells; gemsitabin 0.32 μM + Asperphenin B 8 μM) of the same molecule?
A: 0.907

Q: What about the “Effect of administration in combination” value (RKO cells; gemsitabin 1.6 μM + Asperphenin B 8 μM) of the same molecule?
A: 0.882

Q: And the “Effect of administration in combination” value (RKO cells; gemsitabin 8 μM + Asperphenin B 8 μM)?
A: 0.801

Q: What about the “Effect of administration in combination” value (RKO cells; gemsitabin 40 μM + Asperphenin B 8 μM) of the same molecule?
A: 0.714

Q: With CC(=O)O[C@H]1C(=O)[C@@]2(C)[C@H]([C@H](OC(=O)c3ccccc3)[C@]3(O)C[C@H](OC(=O)[C@H](O)[C@@H](NC(=O)c4ccccc4)c4ccccc4)C(C)=C1C3(C)C)[C@]1(OC(C)=O)CO[C@@H]1C[C@@H]2O [Paclitaxel, paclitaxel, reference compound] as the molecule, how does the IC50 ([1]; Homo sapiens, HCT-116, HCT116, Table 4, read-out: Growth inhibition value of cancer cell (IC50)) read?
A: 0.42 nM

Q: What about the IC50 [6] of the same molecule?
A: 0.46 nM

Q: What about the IC50 [7] of the same molecule?
A: > 100 nM

Q: What about the IC50 [8] of the same molecule?
A: 0.21 nM

Q: And the IC50 [9]?
A: > 100 nM

Q: With CCCCCCCCC[C@@H](O)CC(=O)N[C@@H](CC(N)=O)C(=O)N[C@@H](CCC(N)=O)C(=O)N[C@@H](CC(=O)c1cc(C)cc(O)c1C(=O)c1c(O)cccc1O)CC(C)C [Asperphenin A] as the molecule, how does the IC50 ([1]; HCT116, 72 hours, Table 3, read-out: Cell growth inhibition concentration (IC50)) read?
A: 1700 nM

Q: And the “Solubility in organic solvent” value ([10]; methanol and acetone)?
A: well dissolved in a moderate organic solvent, such as methanol and acetone

Q: And the Stability ([10]; room temperature)?
A: stable at room temperature

Q: And the IC50 [2]?
A: 5800 nM

Q: What about the IC50 [3] of the same molecule?
A: 2300 nM

Q: And the IC50 [4]?
A: 3100 nM

Q: What about the IC50 [5] of the same molecule?
A: 14600 nM
